Results reported in US12180187B2, “1-phenyl-5-azinylpyrazolyl-3-oxyalkyl acids and their use for controlling unwanted plant growth” (BAYER AKTIENGESELLSCHAFT, priority 2019, dated 2024).

How the values were obtained:
ECHCG [1] = assay: Post-emergence action against ECHCG, 1.28 kg/ha; format: in vivo, Echinochloa crus-galli; details: dosage 1280 g/ha, visual rating about 3 weeks after treatment vs untreated controls
Procedure, shortened: (§1)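 Greenhouse pot test, sandy loam; weeds sprayed post-emergence at one-leaf stage (2–3 weeks after sowing) with WP or EC formulation plus 0.5% additive, 600 l/ha water. Visual rating after about 3 weeks versus untreated controls, 100% = plants dead, 0% = like control.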

KCHSC [2] = assay: Pre-emergence action against KCHSC, 1280 g/ha; format: in vivo, Bassia scoparia; details: scored visually after about 3 weeks vs untreated controls (100% = plants have died)
Procedure, shortened: (§2)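 Soil-surface application after sowing, before emergence: WP or EC formulations in water with 0.5% additive, 600 litres per hectare, onto sandy loam pots. Damage rated visually in % relative to untreated plants after roughly 3 weeks in a greenhouse.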

POAAN [3] = assay: Post-emergence action against POAAN, 1.28 kg/ha; format: in vivo, Poa annua; details: dosage 1280 g/ha, visual rating about 3 weeks after treatment vs untreated controls
Procedure, shortened: as §1

STEME [4] = assay: Post-emergence action against STEME, 1.28 kg/ha; format: in vivo, Stellaria media; details: dosage 1280 g/ha, visual rating about 3 weeks after treatment vs untreated controls (100% = plants died)
Procedure, shortened: as §1

SETVI [5] = assay: Pre-emergence action against SETVI, 1280 g/ha; format: in vivo, Setaria viridis; details: visual scoring after about 3 weeks vs untreated controls, 100% = plants have died, 0% = like control plants
Procedure, shortened: as §2

ALOMY [6] = assay: Post-emergence action against ALOMY, 1.28 kg/ha; format: in vivo, Alopecurus myosuroides; details: dosage 1280 g/ha, visual rating about 3 weeks after treatment vs untreated controls
Procedure, shortened: as §1

DIGSA [7] = assay: Pre-emergence action against DIGSA, 1280 g/ha; format: in vivo, Digitaria sanguinalis; details: visual scoring after about 3 weeks vs untreated controls, 100% = plants have died, 0% = like control plants
Procedure, shortened: as §2

AMARE [8] = assay: Post-emergence action against AMARE, 1.28 kg/ha; format: in vivo, Amaranthus retroflexus; details: dosage 1280 g/ha, visual rating about 3 weeks after treatment vs untreated controls (100% = plants died)
Procedure, shortened: as §1

ECHCG [9] = assay: Pre-emergence action against ECHCG, 1280 g/ha; format: in vivo, Echinochloa crus-galli; details: visual scoring after about 3 weeks vs untreated controls, 100% = plants have died, 0% = like control plants
Procedure, shortened: as §2

AMARE [10] = assay: Pre-emergence action against AMARE, 1280 g/ha; format: in vivo, Amaranthus retroflexus; details: scored visually after about 3 weeks vs untreated controls (100% = plants have died)
Procedure, shortened: as §2

DIGSA [11] = assay: Post-emergence action against DIGSA, 1.28 kg/ha; format: in vivo, Digitaria sanguinalis; details: dosage 1280 g/ha, visual rating about 3 weeks after treatment vs untreated controls
Procedure, shortened: as §1

MATIN [12] = assay: Pre-emergence action against MATIN, 1280 g/ha; format: in vivo, Tripleurospermum inodorum (Matricaria inodora); details: scored visually after about 3 weeks vs untreated controls (100% = plants have died)
Procedure, shortened: as §2

SETVI [13] = assay: Post-emergence action against SETVI, 1.28 kg/ha; format: in vivo, Setaria viridis; details: dosage 1280 g/ha, visual rating about 3 weeks after treatment vs untreated controls
Procedure, shortened: as §1

KCHSC [14] = assay: Post-emergence action against KCHSC, 1.28 kg/ha; format: in vivo, Bassia scoparia; details: dosage 1280 g/ha, visual rating about 3 weeks after treatment vs untreated controls (100% = plants died)
Procedure, shortened: as §1

MATIN [15] = assay: Post-emergence action against MATIN, 1.28 kg/ha; format: in vivo, Tripleurospermum inodorum (Matricaria inodora); details: dosage 1280 g/ha, visual rating about 3 weeks after treatment vs untreated controls (100% = plants died)
Procedure, shortened: as §1

POAAN [16] = assay: Pre-emergence action against POAAN, 1280 g/ha; format: in vivo, Poa annua; details: visual scoring after about 3 weeks vs untreated controls, 100% = plants have died, 0% = like control plants
Procedure, shortened: as §2

STEME [17] = assay: Pre-emergence action against STEME, 1280 g/ha; format: in vivo, Stellaria media; details: scored visually after about 3 weeks vs untreated controls (100% = plants have died)
Procedure, shortened: as §2

ALOMY [18] = assay: Pre-emergence action against ALOMY, 1280 g/ha; format: in vivo, Alopecurus myosuroides; details: visual scoring after about 3 weeks vs untreated controls, 100% = plants have died, 0% = like control plants
Procedure, shortened: as §2

LOLRI [19] = assay: Post-emergence action against LOLRI, 1.28 kg/ha; format: in vivo, Lolium rigidum; details: dosage 1280 g/ha, visual rating about 3 weeks after treatment vs untreated controls
Procedure, shortened: as §1

LOLRI [20] = assay: Pre-emergence action against LOLRI, 1280 g/ha; format: in vivo, Lolium rigidum; details: visual scoring after about 3 weeks vs untreated controls, 100% = plants have died, 0% = like control plants
Procedure, shortened: as §2

VERPE [21] = assay: Pre-emergence action against VERPE, 1280 g/ha; format: in vivo, Veronica persica; details: scored visually after about 3 weeks vs untreated controls (100% = plants have died)
Procedure, shortened: as §2

VERPE [22] = assay: Post-emergence action against VERPE, 1.28 kg/ha; format: in vivo, Veronica persica; details: dosage 1280 g/ha, visual rating about 3 weeks after treatment vs untreated controls (100% = plants died)
Procedure, shortened: as §1

ABUTH = assay: Post-emergence action against ABUTH, 1.28 kg/ha; format: in vivo, Abutilon theophrasti; details: dosage 1280 g/ha, visual rating about 3 weeks after treatment vs untreated controls (100% = plants died)
Procedure, shortened: as §1

SMILES	Post-emergence action against ECHCG (ECHCG [1])	Pre-emergence action against KCHSC (KCHSC [2])	Post-emergence action against POAAN (POAAN [3])	Post-emergence action against STEME (STEME [4])	Pre-emergence action against SETVI (SETVI [5])	Post-emergence action against ALOMY (ALOMY [6])	Pre-emergence action against DIGSA (DIGSA [7])	Post-emergence action against AMARE (AMARE [8])	Pre-emergence action against ECHCG (ECHCG [9])	Pre-emergence action against AMARE (AMARE [10])	Post-emergence action against DIGSA (DIGSA [11])	Pre-emergence action against MATIN (MATIN [12])	Post-emergence action against KCHSC (KCHSC [14])	Post-emergence action against MATIN (MATIN [15])	Pre-emergence action against POAAN (POAAN [16])	Pre-emergence action against STEME (STEME [17])	Post-emergence action against LOLRI (LOLRI [19])	Pre-emergence action against LOLRI (LOLRI [20])	Pre-emergence action against VERPE (VERPE [21])	Post-emergence action against VERPE (VERPE [22])	other results
O=C(O)COc1nn(-c2ccc(F)cc2)c(-c2ccc(F)nc2)c1Br [VII-095]	100%	100%	100%	90%	100%	100%	100%	90%	100%	100%	100%	90%	100%	100%	100%	100%	100%	100%	100%	90%	Post-emergence action against SETVI (SETVI [13]): 100%; Pre-emergence action against ALOMY (ALOMY [18]): 100%
O=C(O)COc1nn(-c2ccc(F)cc2F)c(-c2ccc(F)nc2)c1Br [VII-100]	90%	100%	100%	100%	90%	100%	90%	100%		100%	90%	100%	90%	90%	100%	100%	100%	100%	100%	100%	Post-emergence action against ABUTH (ABUTH): 90%; Post-emergence action against SETVI (SETVI [13]): 100%
COC(=O)[C@@H](C)Oc1nn(-c2ccccc2F)c(-c2cncnc2)c1[N+](=O)[O-] [VI-006]		100%	100%	100%	100%		100%		100%	90%	90%	100%	90%	100%	100%	90%	100%	100%	100%	90%	
CCOC(=O)COc1nn(-c2ccc(F)cc2F)c(-c2ccc(F)nc2)c1Br [VII-101]	100%	100%	100%	100%	100%	100%	100%	90%	90%	100%	100%	100%	90%	100%	100%	100%	100%	100%	100%	100%	Post-emergence action against ABUTH (ABUTH): 90%; Post-emergence action against SETVI (SETVI [13]): 100%; Pre-emergence action against ALOMY (ALOMY [18]): 100%
CONC(=O)COc1nn(-c2ccc(F)cc2F)c(-c2ccc(F)nc2)c1Br [Example X-024]	100%	100%	100%	100%	100%	100%	100%	100%	100%	100%	100%	100%	90%	90%	100%	100%	100%	100%	100%	100%	Post-emergence action against ABUTH (ABUTH): 100%; Post-emergence action against SETVI (SETVI [13]): 90%; Pre-emergence action against ALOMY (ALOMY [18]): 100%
CCOC(=O)COc1nn(-c2ccc(F)cc2)c(-c2ccc(F)nc2)c1C(F)(F)F [VII-059]	100%	100%	100%	100%	100%	100%	100%	100%	100%	100%	100%	90%	100%	100%	100%	100%	100%	100%	100%	90%	Pre-emergence action against ALOMY (ALOMY [18]): 100%
